This is an account of results in ChEMBL document CHEMBL5052845 (2021).

Common to all, as to format: ADME, Microsome
A short description of data set [1]: Clearance in mouse liver microsomes at 1 uM incubated for 60 mins followed by NADPH generating system addition and measured by LC-MS/MS analysis. Particulars: read-out: CLH. A general note: Microsomes from liver hold many membrane-bound enzymes, among them those of drug oxidation.
The nature of data set [2]: Half-life in human liver microsomes at 1 uM incubated for 60 mins followed by NADPH generating system addition and measured by LC-MS/MS analysis.
The nature of data set [3]: Clearance in human liver microsomes at 1 uM incubated for 60 mins followed by NADPH generating system addition and measured by LC-MS/MS analysis. Particulars: read-out: CLH.
The nature of data set [4]: Half-life in mouse liver microsomes at 1 uM incubated for 60 mins followed by NADPH generating system addition and measured by LC-MS/MS analysis.
Data set [5] in a line: Metabolic stability in mouse liver microsomes at 1 uM assessed as compound remaining incubated for 60 mins followed by NADPH generating system addition and measured by LC-MS/MS analysis. As to conditions: read-out: Stability.

As usually defined, the half-life is the time needed for the level to fall by half in the phase considered. As to `CCC[C@H]1C[C@@H](NC(=O)c2ccc(C(F)(F)F)[nH]c2=O)c2cc(C)ccc2N1`, the microsomal CLint at 1 µM in data set [1] amounted to 12.1 µL/min/mg; in data set [3] it was 15.3 µL/min/mg. Besides, the results for the half-life at 1 µM in data set [2] and in data set [4] were 1.51 h and 1.9 h, respectively.

Turning to `CCC[C@@H]1C[C@@H](NC(=O)c2ccc(C(F)(F)F)[nH]c2=O)c2cc(C)ccc2N1`, the values for the microsomal CLint at 1 µM in data set [1] and in data set [3] were 19.2 µL/min/mg and 17 µL/min/mg, respectively. For the same molecule, the half-life at 1 µM in data set [2] amounted to 1.37 h; in data set [4], 1.2 h.

For the molecule `CCC[C@H]1Oc2ccc(C)cc2[C@@H]1NC(=O)c1ccc(C(F)(F)F)[nH]c1=O`, the microsomal CLint at 1 µM in data set [1] is 41.2 µL/min/mg; in data set [3], 35.4 µL/min/mg. For the same molecule, the half-life at 1 µM worked out at 0.652 h in data set [2] and 0.56 h in data set [4].

With `Cc1ccc2c(c1)[C@H](O)CC[C@H]2NC(=O)c1ccc(C(F)(F)F)[nH]c1=O`, the remaining at 1 h, 1 µM in data set [5] turned out to be 105%.
